According to patent US20150018396A1, “PREVENTION AND TREATMENT OF RESPIRATORY INFECTION WITH PEROXISOME PROLIFERATOR ACTIVATOR RECEPTOR DELTA AGONIST” (PRESIDENT AND FELLOWS OF HARVARD COLLEGE, priority 2012, published 2015):
“Also recorded” adds a separate entry of the source.

What was measured:
[1] = system: S. pneumoniae; assay: Survival in a mouse model of pneumonia (intranasal S. pneumoniae infection); assay type: in vivo; conditions: wt C57BL/6 mice, 2 mg kg^−1 per day by gavage, 5×10^5 CFU S. pneumoniae
Experimental: (§1) Mice were infected with 5×10^5 CFU of S. pneumoniae. […] Twenty-four hours post-infection, lavage fluid was isolated and analyzed for bacterial counts. […] Mice were gavaged with GW501516 for three days. […] Alveolar macrophages were isolated and ROS was determined using FcOxyburst. Data are presented as mean±SEM. *p<0.05.
We next sought to explore the therapeutic potential of the Ppar-δ controlled phagosomal function in pathologies associated with infection. For this purpose, wt mice were infected with a higher dose of S. pneumoniae through nasal inhalation, which led to lethality in 75% of mice within 5 days post-injection (FIG. 5a). […] Taken together, our data implicate the potential use of synthetic Ppar-δ agonists to improve the outcomes of bacteria infection, such as pneumonia.
Ppar-δ floxed animals were generated as described previously^33,34. Ppar-δ mice were crossed to lysozyme cre mice (Jackson laboratory) to generate Ppar-δ^mye−/− mice. Ppar-δ^fl/fl mice were used as wt controls. All mice were maintained on a C57BL/6 background. Mice used for survival studies in FIG. 5 were C57BL/6 mice purchased from Jackson Laboratory. Bone marrow from CSS-17 mice was provided by Dr. Colleen Croniger (Case Western Reserve University). For in vivo killing assays, mice were anesthetized with a ketamine/xylazine solution and infected intranasally with 10^6 CFU S. pneumoniae. […]

[2] = system: Ppar-δ; assay: Gene expression analyses of Balf cells by real-time PCR; assay type: in vivo, mouse; conditions: mice gavaged for three days
Experimental: as §1
For gene expression analyses, we determined relative expression levels using SYBR Green-based real-time qPCR reactions. We used 36B4 expression levels for normalization. For in vitro analyses of infected macrophages, S. pneumoniae conjugated to magnetic beads were used during infection (see Bacterial Growth and Manipulation for details). Cells were infected for 1 hr with conjugated beads. At the end of the experiment, a magnet was used to separate cells that contained intracellular magnetic bacteria. These cells were used for expression analyses.

[3] = system: alveolar macrophages; assay: Fc-stimulated phagosomal ROS production ex vivo in isolated alveolar macrophages (FcOxyburst); design: species or system mouse; conditions: wt and Ppar-δ mye−/− mice gavaged for 3 days
Experimental: as §1
We next sought to explore the therapeutic potential of the Ppar-δ controlled phagosomal function in pathologies associated with infection. For this purpose, wt mice were infected with a higher dose of S. pneumoniae through nasal inhalation, which led to lethality in 75% of mice within 5 days post-injection (FIG. 5a). […]
Bacterial killing assays were used for in vitro bacterial killing^37,38. […] Colony forming units (CFU) were determined as a measure of bacterial survival. ROS assays were done using FcOxyburst (Invitrogen) according to manufacturers protocols and analyzed by fluorescence activated cell sorting (FACS). Phagocytosis and phagosome number were determined by FACS using Alexa Fluor 647 labeled heat killed S. pneumoniae^32. pH was determined as previously described^32. […] Macrophages were incubated with labeled bacteria and analyzed by FACS for FITC relative to Alexa Fluor 647 signal. ATP and lactate were measured using commercially available kits. […]

[4] = system: Noxo1 promoter; assay: Noxo1 promoter luciferase reporter in RAW macrophages; assay type: cell-based; conditions: RAW267.4 macrophages, luciferase reporter driven by 2 kb 5′-regulatory region, treated 12 hours
Experimental: (§2) FIGS. 3a-3c show the transcriptional regulation of macrophage phagosomal function by Ppar-δ. FIGS. 3a and 3b show the expression of genes involved in NADPH oxidase complexes in cultured macrophages and alveolar macrophages, respectively. Gene expression was determined by real-time PCR. […] RAW264.7 macrophages were transfected with a luciferase reporter driven by the 2 kb 5′-regulatory region of the Noxo1 or Nox2 gene. […] Transfection was done in stably transformed wt and Ppar-δ^−/− macrophage cell lines. Data are presented as mean±SEM. *p<0.05.
(§3) To elucidate downstream targets of Ppar-δ mediating phagosomal ROS production, expression of genes involved in this process was analyzed in stably transformed wt and Ppar-δ^−/− macrophages and in alveolar lavage cells from wt and Ppar-δ^mye−/− mice after S. pneumoniae infection. […] To determine whether members of the NADPH complex are transcriptional targets of Ppar-δ, we generated luciferase reporter constructs driven by 2 kb upstream promoters of Noxo1 and Nox2. […] Indeed, we found the expression of Ppar-δ and its known target Slc25a20 increased after bacteria infection (FIG. 7a).

[5] = system: Noxo1 promoter; assay: Noxo1 promoter luciferase reporter in stably transformed wt and Ppar-δ−/− macrophage cell lines; assay type: cell-based, mouse; conditions: Ppar-δ−/− macrophage cell lines vs wt
Experimental: as §2, §3
Bone marrow-derived macrophages were differentiated in L929 conditioned media as previously described^14. Stables lines were created from bone marrow of Ppar-δ^mye−/− and control mouse lines using a CreJ2 viral system^35,36. […]

## Cc1cc(SCc2sc(-c3ccc(C(F)(F)F)cc3)nc2C)ccc1OCC(=O)O [GW501516]
[1]
  onset of death: delayed onset of death
[1]; 3 days prior to and every other day after infection
  survival compared to vehicle-treated mice: significant improvement in survival
[2]
  expression of Ppar-δ in Balf cells: increase
  expression of Ppar-δ target gene Slc25a20 in Balf cells: increase
  level of Noxa1 mRNA in Balf cells: increased
  level of Noxo1 mRNA in Balf cells: increased
[3]
  phagosome ROS production in alveolar macrophages: increased ROS production in a Ppar-δ dependent manner; also recorded: increases phagosome ROS production
[4]
  promoter activity of Noxo1: increased; also recorded: able to increase activity of the promoter of Noxo1
[5]
  ability to induce Noxo1 promoter activity in cells lacking Ppar-δ: lost
